The text below walks through data of article PMC8267677, “Inhibitory Mechanisms of Lusianthridin on Human Platelet Aggregation” (International Journal of Molecular Sciences, 2021).

Broadly, the IC50 is the concentration at which inhibition is half-maximal. Read a high IC50 as a need for much substance.

One test concerns the target T1, cyclooxygenase-1 (COX-1) (Ovis aries, UniProt P05979).
T1 construct: gene PTGS1
T1 sequence (P05979 25-600): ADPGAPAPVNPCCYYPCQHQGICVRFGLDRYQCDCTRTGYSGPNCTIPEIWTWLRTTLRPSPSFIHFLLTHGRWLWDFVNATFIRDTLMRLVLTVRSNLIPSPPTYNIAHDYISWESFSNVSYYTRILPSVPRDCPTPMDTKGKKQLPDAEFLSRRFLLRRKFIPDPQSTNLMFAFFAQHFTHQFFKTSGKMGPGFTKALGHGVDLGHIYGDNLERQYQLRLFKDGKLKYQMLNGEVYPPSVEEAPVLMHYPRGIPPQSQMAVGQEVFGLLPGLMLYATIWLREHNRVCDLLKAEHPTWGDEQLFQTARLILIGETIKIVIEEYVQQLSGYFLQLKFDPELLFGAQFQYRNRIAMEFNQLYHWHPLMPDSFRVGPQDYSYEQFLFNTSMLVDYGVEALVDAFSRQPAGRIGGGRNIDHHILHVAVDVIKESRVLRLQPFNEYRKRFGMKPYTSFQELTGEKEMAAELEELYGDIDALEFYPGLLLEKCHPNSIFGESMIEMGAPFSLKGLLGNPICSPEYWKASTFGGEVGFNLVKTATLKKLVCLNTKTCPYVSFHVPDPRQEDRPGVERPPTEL
Kind of test: COX fluorescent inhibitor screening assay kit (Cayman), ADHP/resorufin readout. It counts as biochemical.

For the next test, the target named is T2, cyclooxygenase-2 (COX-2) (Homo sapiens, UniProt P35354).
T2 construct: gene PTGS2
T2 sequence (P35354 18-604): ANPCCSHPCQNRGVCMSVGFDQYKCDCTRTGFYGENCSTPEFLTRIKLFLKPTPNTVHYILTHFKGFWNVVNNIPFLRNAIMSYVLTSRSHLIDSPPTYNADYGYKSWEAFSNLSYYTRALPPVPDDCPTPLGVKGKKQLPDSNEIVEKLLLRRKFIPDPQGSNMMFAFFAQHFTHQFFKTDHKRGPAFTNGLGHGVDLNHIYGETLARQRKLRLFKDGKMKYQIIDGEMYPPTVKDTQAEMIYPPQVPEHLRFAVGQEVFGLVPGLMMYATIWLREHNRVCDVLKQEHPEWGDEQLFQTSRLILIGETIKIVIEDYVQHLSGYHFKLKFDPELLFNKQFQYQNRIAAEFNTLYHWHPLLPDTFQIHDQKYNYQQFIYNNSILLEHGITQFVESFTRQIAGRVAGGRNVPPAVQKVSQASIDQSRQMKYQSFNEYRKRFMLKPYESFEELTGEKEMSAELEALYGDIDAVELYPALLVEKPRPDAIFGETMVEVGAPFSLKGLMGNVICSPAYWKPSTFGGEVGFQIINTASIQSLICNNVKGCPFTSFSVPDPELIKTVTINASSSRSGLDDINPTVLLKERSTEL
Described as above. It counts as biochemical.

For the compound `COc1cc(O)c2c(c1)CCc1cc(O)ccc1-2` [lusianthridin], the IC50 stood at 10.8 ± 1.12 µM on cyclooxygenase-1 (COX-1) and 0.17 µM against cyclooxygenase-2 (COX-2).
